Laboratory results: patent US8110217B2, “Sphingomyelin liposomes for the treatment of hyperactive bladder disorders” (priority 2001, dated 2012)
Entries after “also recorded” stand apart in the source; their conditions may differ.

Assays:
Type in all cases: in vivo, female Sprague-Dawley rats
[1] = tested on: chemically induced bladder hyperactivity; experiment: Cystometrogram (CMG): liposomes of various lipids infused in the presence of KCl after protamine sulfate (Examples 1-4)
Excerpt: Bladder reflex activity in thirty-four (34) female Sprague-Dawley rats (200-250 g) was studied by cystometry performed under anesthesia with urethane (1.2 g/kg) administered by subcutaneous injection. Body temperature was maintained in the physiologic range using a heating lamp. A transurethral bladder catheter (PE-50) connected by a three-way stopcock to a pressure transducer and to a syringe pump was used to record intravesical pressure and to infuse solutions into the bladder. A control cystometrogram (CMG) was performed by slowly filling the bladder with saline at a rate of 0.04 ml/min to elicit repetitive voiding. The bladder contraction frequency of the reflex bladder contractions were recorded. After performing control CMGs with saline infusion for 3 hours, protamine sulfate (PS) (Sigma Chemical; 10 mg/ml) was infused at a rate of 0.04 ml/min for 1 hour to increase epithelial permeability followed by infusion of the irritant KCl (500 mM) for 1 hour. Subsequently, liposomes made from lipids of various compositions then were infused in the presence of a high concentration of KCl for 2 hours.
The effect of charge on the lipid headgroup in reducing bladder activity in three animal groups (n=5) was determined. Neutrally charged liposomes prepared with L-α-PC (a zwitterionic lipid egg PC) were compared against liposomes having either a positively or negatively charged polar headgroup, namely, 1,2-dioleoyl-3-trimethylammonium-propane (DOTAP) and 1-α-phosphatidylserine (POPS), respectively.
Liposomes were prepared as described by Kirby and Gregoriadis (Kirby, C. J. and Gregoriadia, G., “A simple procedure for preparing liposomes capable of high encapsulation efficiency under mild conditions,” Liposome Technology, G. Gregnoriadis, Ed., C.R.C. Press, Inc., Boca Raton, Fla., 1984, Vol. 1, p. 20, 1984). Briefly, liposomes were constructed as a 2:1 molar ratio of L-α-phosphatidylcholine and cholesterol (Sigma Chemical Co., St. Louis, Mo.) to a final lipid concentration of 1-2 mg/ml in saline. Lipids in chloroform were dried down together in the proper ratio under nitrogen. The residues were reconstituted as liposomes in saline or 500 mM KCl by intense sonication. This lipid composition produced liposomes with no net charge.
Statistical analyses were performed using Student's t test for paired or unpaired data, where applicable. A P-value less than 0.05 was considered significant. All data were expressed as means±S.E. (standard error).
Neutrally charged liposomes prepared with sphingomyelin were compared against liposomes prepared from dihydrosphingomyelin and two pure synthetic lipids: 1,2-distearoyl-sn-glycero-3-phosphocholine (DSPC) and 1,-oleoyl-2-stearoyl-sn-glycero-3-phosphocholine (OSPC).
The methodology of this investigation is the same as described above in Example 1 with the exception that the preparation of liposomes was modified from Example 1. Briefly, liposomes were constructed as a 2:1 molar ratio of sphingomyelin and cholesterol (Sigma Chemical Co., St. Louis, Mo.) to a final lipid concentration of 1-2 mg/ml in saline. Lipids in chloroform were dried down together in the proper ratio under nitrogen. The residues were reconstituted as liposomes in saline or 500 mM KCl by intense sonication. This lipid composition produced sphingomyelin liposomes with no net charge.
Sphingomyelin devoid of its phosphorylcholine head group generates the molecule ceramide, a well known lipid second messenger which mediates a wide range of cellular responses to external stimuli, and also is used for the biosynthesis of sphingomyelin and glycosphingolipids. Because ceramide cannot form stable liposomes by itself, its effect on bladder hyperactivity was tested by including it at 1 mol % in an inert lipid, namely, 1,2-distearoyl-sn-glycero-3-phosphocholine (DSPC).
The methodology of this investigation is the same as described above in Example 1 with the exception that the preparation of liposomes was modified from Example 1. […]

[2] = tested on: hyperactive bladder (PS/KCl); experiment: Continuous CMG, hyperactive bladder induced by PS/KCl (Examples 5-6)
Method: (§1) This was followed by instillation of liposomes (LP) in saline (in the case of the former) or LP/KCl.
(§2) Intravesical bladder pressure was recorded via a transurethral catheter in adult female Sprague-Dawley rats anesthetized with urethane (1.2 g/kg) administered by subcutaneous injection (sc). Some animals were pretreated with capsaicin (125 mg/kg, sc) four days prior to the experiments. […] Parameters measured included intercontraction interval (ICI), amplitude of bladder contractions, compliance and micturition pressure threshold (PT).
(§3) Animal Preparation. Thirty-four female Sprague-Dawley rats (250-300 g) were used in this study. Animals were anesthetized with urethane (1.2 g/kg, sc). Body temperature was maintained in the physiological range using a heating lamp.
(§4) Cystometrogram (CMG). A transurethral bladder catheter (PE-50) was connected via a three-way stopcock to a pressure transducer and to a syringe pump. This was used to record intravesical pressure and to infuse solutions into the bladder. A control CMG was performed by slowly filling the bladder with saline (0.04 ml/min) to elicit repetitive voiding. The parameters recorded were amplitude, PT, compliance, and ICI of reflex bladder contractions. Measurements in each animal represented the average of 3 to 5 bladder contractions.
(§5) Induction of a Hyperactive Bladder. […] L. Cheng et al., 1993, Am. J. Physiol. 265:R132-138). The experimental design is illustrated in FIG. 7. The KCl concentration used was within the range of concentrations present in normal rat urine (M. Ohnishi et al., 2001, Toxicol. Appl. Pharmacol. 174:122-129).
(§6) Preparation of Liposomes (LP). LP were prepared as described by Kirby and Gregoriadis (C. J. Kirby and G. Gregoriadia, 1984, “A simple procedure for preparing liposomes capable of high encapsulation efficiency under mild conditions,” Liposome Technology; G. Gregnoriadis, Ed., C.R.C. Press, Inc., Boca Raton, Fla., Vol. 1, p. 20). Briefly, LP were constructed as a 2:1 molar ratio of L-α-phosphatidylcholine and cholesterol (Sigma Chemical Co., St. Louis, Mo.) to a final lipid concentration of 2 mg/ml in saline. Lipids in chloroform were dried down together in the proper ratio under nitrogen. The residues were reconstituted as LP in saline or 500 mM KCl by intense sonication.
(§7) Statistical Analyis. Statistical analyses were performed using Student's t test for paired or unpaired data, where applicable. A p-value less than 0.05 was considered significant. All data are expressed in Example 2 (below) as means±S.E.

[3] = tested on: acute hyperactive bladder; experiment: Continuous CMG, acute hyperactive bladder model with intravesical PS and KCl (Examples 7-8)
Method: An animal model for acute hyperactive bladder in rats was developed using intravesical infusion of PS, an agent used to break down urothelial barrier function and physiological concentrations of KCl.
Continuous CMGs were performed in urethane-anesthetized female rats. The bladder was filled (0.04 ml/min) with normal saline followed by intravesical infusion for a 60 minute period with a test solution comprising either KCl (100 or 500 mM) or PS (10 or 30 mg/ml). Following this, 10 mg/ml PS treated animals were infused intravesically with 100, 300 or 500 mM KCl. Some animals were pretreated with capsaicin ([…], sc) four days before the experiments.
Animal Preparation. The study was performed on 40 female Sprague-Dawley rats weighing 250-300 gm. Animals were anesthetized with 1.2 gm/kg urethane injected subcutaneously. Body temperature was maintained in the physiological range using a heating lamp.
Cystometrogram (CMG). PE-50 tubing (Clay-Adams, Parsippany, N.J.) was inserted into the bladder through the urethra and connected via a three-way stopcock to a pressure transducer and to a syringe pump. This was used for recording intravesical pressure and for infusing solutions into the bladder. A control CMG was performed by slowly filling the bladder with saline (0.04 ml/min) to elicit repetitive voiding. The amplitude, PT, compliance and intercontraction interval (ICI) of reflex bladder contractions were recorded. Pressure threshold (PT) represents the pressure that induces the initial bladder contraction. PT often has been used as a parameter corresponding to afferent nerve activity for the induction of reflex bladder contractions. Measurements in each animal represented the average of 3 to 5 bladder contractions.
After performing control CMGs with saline infusion, three intravesical infusion experiments were performed in parallel: (1) infusion of KCl (100 or 500 mM in saline) for one hour (N=4 in each group); (2) infusion of PS (Sigma Chemical Co.; 30 mg/ml in saline) for one hour (N=6); and (3) infusion of PS (10 mg/ml) for one hour, followed by 100, 300 or 500 mM KCl for one hour (N=6, in each subgroup). In four animals, capsaicin dissolved in a vehicle containing 10% ethanol, 10% TWEEN®80 and 80% physiological saline, at a concentration of 20 mg/ml was given subcutaneously in divided doses on 2 consecutive days. The doses included 25 and 50 mg/kg at a 12-hour interval on the first day and 50 mg/kg on the second day, as previously described (C. L. Cheng et al., 1993, Am. J. Physiol. 265:R132-138). All injections were performed under halothane anesthesia. Four days after the last dosage of capsaicin, the animals were anesthetized and treated with intravesical administration of PS (10 mg/ml) for 1 hour followed by KCl (500 mM) infusion.
Suppression of Micturition Reflex. To evaluate the direct effects of potassium on detrusor muscle, micturition reflex was blocked in 4 animals by either intravenous hexamethonium injection (25 mg/kg) (N=2) or transection of bilateral pelvic nerves (N=2).
Statistical Analysis. Statistical analyses were performed using Student's t test for paired or unpaired data, as applicable, with p<0.05 considered significant. Quantitative data are expressed in Example 8 (below) as means plus or minus standard error.

[4] = tested on: hyperactive bladder (acetic acid); experiment: Continuous CMG, hyperactive bladder induced by acetic acid (Examples 5-6)
Method: as §1, §2, §3, §4, §5, §6, §7

[5] = Table 1A: PS 10 mg/ml infusion 1 hour after saline, N=6
[6] = AA 1 hr in capsaicin pretreated rats, N=4
[7] = AA 2 hr in capsaicin pretreated rats, N=4
[8] = AA at 1 hour, capsaicin pretreated animals
[9] = AA at 2 hours, capsaicin pretreated animals
[10] = Table 2A series: saline, AA 0.1% 1 h, LP 2 h, N=6
[11] = Table 2B series: saline, AA 0.1% 1 h, saline, N=6
[12] = Table 2C series: saline, LP 1 h, AA 1 h, N=6

CCCCCCCCCCCCC/C=C/[C@@H](O)[C@@H](N)COP(=O)(O)O [sphingosine 1-phosphate]
effect on efficacy of DSPC liposomes in reducing bladder contraction frequency ([1]; included at 1 mol % in DSPC liposomes): did not show a similar beneficial effect | effect on efficacy of DSPC liposomes in reducing bladder contraction frequency ([1]; included in DSPC at 1-5 mol % (data not shown)): equally effective as ceramide and sphingosine

protamine sulfate [PS]
Amplitude [2, 5]: 27.5 ± 0.7 cm H2O | Compliance [2, 5]: 0.210 ± 0.031 ml/cm H2O | ICI [2, 5]: 14.9 ± 1.7 min | PT [2, 5]: 5.9 ± 0.9 cm H2O | change of ICI / CMGs ([2]; infused alone: PS 10 mg/ml or KCl 500 mM): not changed; also recorded: did not significantly change the CMGs | Amplitude ([3]; 10 mg/ml PS, one hour, N=18): 25.3 ± 2.0 cm H2O | Compliance ([3]; 10 mg/ml PS, one hour, N=18): 0.176 ± 0.013 ml/cm H2O | ICI ([3]; 10 mg/ml PS, one hour, N=18): 17.8 ± 0.7 min | PT ([3]; 10 mg/ml PS, one hour, N=18): 3.4 ± 0.9 cm H2O | Amplitude ([3]; 30 mg/ml PS, one hour, N=6): 28.3 ± 3.1 cm H2O | Compliance ([3]; 30 mg/ml PS, one hour, N=6): 0.083 ± 0.022 ml/cm H2O | ICI ([3]; 30 mg/ml PS, one hour, N=6): 2.7 ± 0.7 min | PT ([3]; 30 mg/ml PS, one hour, N=6): 7.8 ± 1.1 cm H2O | ICI decrease ([3]; PS 30 mg/ml): 80.6% | PT increase ([3]; PS 30 mg/ml): 36.8% | compliance decrease ([3]; PS 30 mg/ml): 63.6% | delay to irritative effect ([3]; PS 30 mg/ml): 40 to 45 min | bladder hyperactivity ([3]; high concentrations of PS): induced bladder hyperactivity (decreased ICI) | irritative effects / CMG parameters ([3]; low concentration of PS (10 mg/ml), one hour): not observed; also recorded: no significant change; also recorded: produced no effect

1-alkyl-2-acetoyl-sn-glycero-3-phosphocholine [PAF]
bladder reflex activity ([1]; instilled alone or included with DSPC liposomes at 1-5 mol %): aggravated the bladder reflex activity

CC(=O)O [AA, acetic acid]
compliance reduction ([4]; AA 0.1%, two series of experiments): 71-76% | ICI ([4]; AA 1 hr in capsaicin pretreated rats (125 mg/kg sc, four days before), N=4): 10.2 ± 3.0 min | Amplitude [4, 6]: 20.9 ± 2.5 cm H2O | Compliance [4, 6]: 0.152±0.028 ml/cm H2O | PT [4, 6]: 6.7 ± 0.2 cm H2O | Amplitude [4, 7]: 23.6 ± 5.7 cm H2O | Compliance [4, 7]: 0.082±0.024 ml/cm H2O | ICI [4, 7]: 4.6 ± 1.2 min | PT [4, 7]: 6.7 ± 0.7 cm H2O | ICI reduction [4, 8]: 51% | compliance reduction [4, 8]: 33% | ICI decrease [4, 9]: 78% | compliance decrease [4, 9]: 64% | Amplitude change ([4]; AA infusion): slight increase | PT change ([4]; AA infusion): not significantly changed | bladder hyperactivity in CMG tracings / summary ([4]; FIGS. 10A-10F, summary of Examples 5-6): elicited bladder hyperactivity | Amplitude [4, 10]: 36.8 ± 6.5 cm H2O | Compliance [4, 10]: 0.071±0.016 ml/cm H2O | ICI [4, 10]: 2.4 ± 0.5 min | PT [4, 10]: 8.3 ± 0.9 cm H2O | Amplitude [4, 11]: 37.0 ± 7.0 cm H2O | Compliance [4, 11]: 0.079±0.026 ml/cm H2O | ICI [4, 11]: 2.9 ± 0.9 min | PT [4, 11]: 9.1 ± 1.4 cm H2O | Amplitude [4, 12]: 38.0 ± 1.3 cm H2O | Compliance [4, 12]: 0.071 ± 0.022 ml/cm H2O | ICI [4, 12]: 3.1 ± 0.8 min | PT [4, 12]: 6.7 ± 0.7 cm H2O | time until irritative effect evident ([4]; following AA infusion): 20 to 30 min

COc1cc(CNC(=O)CCCCC=CC(C)C)ccc1O [capsaicin, 8-methyl-N-vanillyl-6-nonenamid]
delay of bladder hyperactivity evoked by AA ([4]; capsaicin pretreated animals): 0.5 to 1 h | delay of onset of the irritative effects of AA ([4]; pretreatment with capsaicin 125 mg/kg sc four days before): 30 to 60 min | ICI decrease ([3]; capsaicin pretreated animals, PS 10 mg/ml then KCl 500 mM, 2 hours of infusion): 35.5% | delay of hyperactive bladder ([3]; capsaicin pretreated animals, sequential PS 10 mg/ml and KCl 500 mM): about 1 hour | delay of onset of irritative effects ([3]; capsaicin pretreatment, PS 10 mg/ml then KCl 500 mM): ~60 min | PS/KCl-induced bladder hyperactivity after capsaicin pretreatment ([3]; capsaicin sc in divided doses, four days before): suppressed PS/KCl-induced bladder hyperactivity
